Data set [1] in a line: drug release of EPI micelles by dialysis in PBS buffer. It counts as physicochemical. Conditions: pH = 7.4, 6.4 and 5.6. The method, then: […] The outside PBS buffer is collected at different time points and then the fresh 30 mL PBS buffer is replaced. The drug concentration is measured and calculated based on a calibration curve generated in PBS buffer with the same pH value.

For data set [2], the system named is KB cells. The data set can be described thus: cytotoxic test (IC50) for the EPI-loaded micelles (MTT). It counts as cell-based. Conditions: Homo sapiens. The method, then:
The results of the cytotoxic test for the drug-loaded micelle are presented as the half maximal inhibitory concentration, i.e. IC50, which is used to examine the biological or biochemical inhibitory effect of a compound. Thus, the IC50 represents the concentration of the drug-loaded micelle required to inhibit the growth of a half of the cancer cells.
5×10^3 cells/well KB cells are incubated in 100 μL of RPMI 1640 medium, and transferred into the 96-well plate for incubating 24 hrs.
Epirubicin.HCl and drug-loaded micelle is prepared at 20 μg/mL, in RPMI 1640 medium. After a serial of dilution, 100 μL/well of each concentration (20, 10, 5, 2.5, 1.25, 1 and 0.5 μg/mL) is added into the cultured plate for 24 hrs incubation.
After 24 hrs incubation, the medium containing the drug and the micelle is removed, and the plate is washed with 100 μL/well PBS buffer at pH=7.4 and further incubated in 100 μL/well fresh medium for 24 and 48 hrs.
The plate is added with 50 μL/well (2 mg/mL) MTT and placed in the incubator for 3 hrs. […] Then, the cell viability is calculated using the ELISA reader.

Data set [3] has as its system KB cell line. The data set can be described thus: intracellular delivery by confocal laser scanning microscope. It counts as cell-based, human. Conditions: 0.625 μg/mL, cells incubated for 1 h. The method, then: Human oral cancer cell line (KB cell line) is used to investigate the cell viability of the carrier and the drug-loaded micelle, and the expression of the drug-loaded micelle through the endocytosis is observed using a confocal laser scanning microscope (CLSM). The 4′,6-diamidino-2-phenylindole (DAPI) and the lysosomal probe (Lyso-Traker) are used for cell core staining and the lysosome staining, respectively. The drug at the concentration of 0.625 μg/mL is added according to the cell viability for the drug-loaded micelle. The KB cell line is cultured for 0.5, 1, 3, and 24 hrs, in which the blue parts are shown by the DAPI staining at the cell core; the red is the fluorescence of the EPI; the green is the fluorescence of the Lyso-Traker, and the purple is the overlap of EPI and DAPI and the yellow is the overlap of Lyso-Traker and EPI. The amounts of EPI entering the nuclei and the lysosomes (the purple and the yellow images) increase with the increase in the incubation time.
Intracellular delivery is observed using the confocal microscope. 18 mm cover slip is immersed in 0.1N HCl solution for one day and washed to remove the impurities on the slide. After being rinsed by the ddH2O, the slide is wiped and then immersed in 75% alcohol. […]

In data set [4] the target is folic acid receptors (FAR). Conditions: read-out: dissociation constant (kd); cited from earlier work.

Data on two molecules can be found in patent publication US20130136714A1, “FUNCTIONALIZED POLYMER NANOPARTICLES AND THE PHARMACEUTICAL USE THEREOF” (KAOHSIUNG MEDICAL UNIVERSITY, priority 2011, published 2013).

Each structure is given as a SMILES string. In brackets after ≈: the same amount, converted by molar mass.

Take `COc1cccc2c1C(=O)c1c(O)c3c(c(O)c1C2=O)C[C@@](O)(C(=O)CO)C[C@@H]3O[C@H]1C[C@H](N)[C@@H](O)[C@H](C)O1` [EPI, Epirubicin]: the “drug release rate (in words)” value in data set [1] is “quickly released in a short time”. Besides, the IC50 – broadly, the concentration at which inhibition is half-maximal – in data set [2] (incubating time 24 hr) stood at 0.35 µg/mL (≈ 0.644 µM); in data set [2] (incubating time 48 hr), 0.2 µg/mL (≈ 0.368 µM). In data set [3], the “intracellular location of EPI fluorescence” value is “observed in the cell nuclei rather than in cytoplasm”.
`Nc1nc2ncc(CNc3ccc(C(=O)N[C@@H](CCC(=O)O)C(=O)O)cc3)nc2c(=O)[nH]1` [folic acid]: the Kd (commonly the concentration at which binding is half-saturated) in data set [4] was 0.1 nM.
